Data: patent US8198260B2, “Composition for the prevention and/or treatment of disorders due to abnormal lipid metabolism, comprising propionyl L-carnitine and chitosan” (Sigma-Tau Industrie Farmaceutiche Riunite SpA, priority 1999, dated 2012)

Tests used:
[1] = tested on: experimentally hypercholesterolaemic rabbits; experiment: Tests in experimentally hypercholesterolaemic rabbits (plasma lipoproteins); format: in vivo, New Zealand rabbits
Procedure: Another type of experiment was conducted in New Zealand rabbits kept on a hypercholesterolaemic diet for forty days and treated with alkanoyl L-carnitine, chitosan or with the two types of compounds in combination. In these tests, 0.5% by weight of cholesterol was added to the normal diet of the rabbits consisting of 150 g/day and containing 2% fats, 20% fibres and 11% ashes.
While one group of animals was used as a control group, the remaining groups were treated for six days with propionyl L-carnitine (2 g/100 g diet), chitosan (1 g/100 g diet), or propionyl L-carnitine+acetyl L-carnitine+butyryl L-carnitine (1 g+1 g+1 g/100 g diet) or with chitosan plus propionyl L-carnitine or chitosan plus the alkanoyl carnitine complex at the doses indicated above.
At the end of the fortieth day of treatment blood samples were taken from the ear vein from all animals and the plasma was used to calculate lipoprotein content in the various fractions (VLDL, LDL, HDL) after ultracentrifuging according to the method described by Noble (Noble R. P., J. Lipid Res., 9:693, 1968).

[2] = tested on: male Wistar rats on atherogenic diet; experiment: Experimental atherosclerosis tests (atherogenic diet for six weeks); format: in vivo; conditions: 100 mg/kg of each component
Procedure: D2 200 mUST/g diet was administered for six weeks consecutively to different groups of male Wistar rats.
While one group of rats served as a control group, the other groups were administered chitosan (100 mg/kg) or propionyl L-carnitine (100 mg/kg) or chitosan (100 mg/kg) plus propionyl L-carnitine (100 mg/kg).
Another group of animals was administered acetyl L-carnitine (100 mg/kg) and butyryl L-carnitine (100 mg/kg) in addition to chitosan and propionyl L-carnitine.

[3] = tested on: experimentally obese rats; experiment: Tests in experimentally obese rats (lipogenic diet for fifteen days); format: in vivo, Wistar rats
Procedure: In these tests, male Wistar rats aged approximately two months were administered a lipogenic diet containing 50% glucose, 20% casein, 4% cellulose, 1% hazel nut oil, 18% starch, 2% vitamin mixture, and 5% salt mixture. The diet was administered for fifteen days consecutively to different groups of rats, one of which served as a control group, whereas the remaining groups were administered daily, per 100 g of diet, 2 g of propionyl L-carnitine or 1 g of chitosan, or the two compounds in combination at the same doses.
Another group was also administered acetyl L-carnitine (2 g/100 g diet) and butyryl L-carnitine (0.5 g/100 g diet) in addition to propionyl L-carnitine and chitosan.
At the end of the fifteenth day since the beginning of the diet, feed consumption and increase in body weight were calculated for each group of rats.

[4] = Day 40 of 0.5% cholesterol diet

Q: `CCC(=O)O[C@H](CC(=O)[O-])C[N+](C)(C)C` [Propionyl L-carnitine, propionyl L-carnitine] was tested. Which “Plasma lipoprotein concentration HDL” value ([1]; Day 0) did it give?
A: 24.2 ± 2.4 mg/dL

Q: What about the “Plasma lipoprotein concentration LDL” value ([1]; Day 0) of the same molecule?
A: 9.8 ± 1.9 mg/dL

Q: What about the “Plasma lipoprotein concentration VLDL” value ([1]; Day 0) of the same molecule?
A: 1.4 ± 0.9 mg/dL

Q: And the “Plasma lipoprotein concentration HDL” value [1, 4]?
A: 26.5 ± 10.4 mg/dL

Q: And the “Plasma lipoprotein concentration LDL” value [1, 4]?
A: 322 ± 31.4 mg/dL

Q: And the “Plasma lipoprotein concentration VLDL” value [1, 4]?
A: 832 ± 105 mg/dL

Q: What about the “Increase in VLDL compared with control animals (in words)” value ([1]; fortieth day, hypercholesterolaemic diet) of the same molecule?
A: much less significant

Q: And the “Protective effect against atherosclerotic lesions induced by the atherogenic diet” value [2]?
A: substantial protective effect

Q: And the “Mean daily feed consumption (g)/animal, before treatment” value ([3]; before treatment, lipogenic diet, per 100 g diet: propionyl L-carnitine 2 g, chitosan 1 g, acetyl L-carnitine 2 g, butyryl L-carnitine 0.5 g)?
A: 19.8 ± 0.71 g

Q: What about the “Mean body growth, final weight increase” value ([3]; end of fifteenth day of lipogenic diet, same doses in diet) of the same molecule?
A: 60.8 ± 5.2

Q: What about the “Mean daily feed consumption (g)/animal, at the end of treatment” value ([3]; end of fifteenth day, lipogenic diet, per 100 g diet: propionyl L-carnitine 2 g, chitosan 1 g, acetyl L-carnitine 2 g, butyryl L-carnitine 0.5 g) of the same molecule?
A: 18.9 ± 0.50 g
